Reference: US5945451A, “Fluorobutenyl(thio)ethers used as pesticides” (Bayer Aktiengesellschaft, priority 1994, dated 1999)
Blank lines part the entries; values can stand above or below the molecule they belong to.

Legend:
[1] = log p, octanol/water partition coefficient determined by reversed-phase HPLC; type: physicochemical; conditions: for chromatographic logP: pH not stated; for chromatographic logD: pH 2
Excerpt: * log p = Logarithm of the partition coefficient p of the substance
between the solvents octanol and water, determined experimentally by mean

[2] = test system: tobacco budworm (Heliothis virescens); assay: whole plant or invertebrate; type: in vivo; conditions: 168 h, read-out: destruction
Procedure: (§1) Solvent: 7 parts by weight of dimethylformamide
(§2) Emulsifier: 1 part by weight of alkylaryl polyglycol ether
(§3) To produce a suitable preparation of active compound, 1 part by weight of active compound is mixed with the stated amount of solvent and the stated amount of emulsifier, and the concentrate is diluted with water to the desired concentration.
Soya bean shoots (Glycine max) are treated by being dipped into the preparation of active compound of the desired concentration and are infested with tobacco budworm (Heliothis virescens) while the leaves are still moist.
(§4) After the desired period of time, the destruction in % is determined. 100% means that all the caterpillars have been killed; 0% means that none of the caterpillars have been killed.

[3] = test system: Meloidogyne incognita; assay: Critical concentration test/nematodes; type: in vivo; conditions: 20 ppm in soil; lettuce root galls after three weeks
Procedure: Critical concentration test/nematodes
Test nematode: Meloidogyne incognita
Solvent: 3 parts by weight of acetone
as §2
To produce a suitable preparation of active compound, 1 part by weight of active compound is mixed with the stated amount of solvent, the stated amount of emulsifier is added and the concentrate is diluted with water to the desired concentration.
The preparation of active compound is intimately mixed with soil which is severely infested with the test nematodes. The concentration of the active compound in the preparation is of practically no importance, only the amount of active compound per unit volume of soil, which is given in ppm (=mg/l), being decisive. The treated soil is transferred into pots, lettuce is sown in, and the pots are kept at a greenhouse temperature of 25° C.
After three weeks, the lettuce roots are checked for infestation with nematodes (root galls) and the degree of efficacy of the active compound in % is determined. The degree of efficacy is 100% when infestation is avoided completely and 0% when the infestation level is just as high as in the control plants in untreated, but equally infested, soil.

[4] = test system: mustard beetle larvae (Phaedon cochleariae); assay: Phaedon larvae test; type: in vivo; conditions: 168 h, after 7 days, dipped cabbage leaves, read-out: destruction
Procedure: as §1, §2, §3
After the desired period of time, the destruction in % is determined. 100% means that all the beetle larvae have been killed; 0% means that none of the beetle larvae have been killed.

[5] = test system: caterpillars of the diamond-back moth (Plutella maculipennis); assay: Plutella test; type: in vivo; conditions: 168 h, after 7 days, dipped cabbage leaves, read-out: destruction
Procedure: as §1, §2, §3
Cabbage leaves (Brassica oleracea) are treated by being dipped into the preparation of active compound of the desired concentration and are infested with caterpillars of the diamond-back moth (Plutella maculipennis) while the leaves are still moist.
as §4

[6] = test system: larvae of the green rice leafhopper (Nephotettix cincticeps); assay: Nephotettix test; type: in vivo; conditions: 144 h, read-out: destruction
Procedure: as §1, §2, §3
Rice seedlings (Oryzae sativa) are treated by being dipped into the preparation of active compound of the desired concentration and are infested with larvae of the green rice leafhopper (Nephotettix cincticeps) while the seedlings are still moist.
After the desired period of time, the destruction in % is determined. 100% means that all the leafhoppers have been killed; 0% means that none of the leafhoppers have been killed.

[7] = test system: Lucilia cuprina larvae; assay: Blowfly larvae test; type: in vivo; conditions: after 24 hours, horse meat, read-out: destruction
Procedure: Test animals: Lucilia cuprina larvae
Solvent: 35 parts by weight of ethylene glycol monomethyl ether
Emulsifier: 35 parts by weight of nonylphenol polyglycol ether
For the purpose of producing a suitable formulation, 3 parts by weight of the active compound are mixed with 7 parts of the abovementioned mixture of solvent and emulsifier, and the emulsion concentrate thus obtained is diluted with water to the particular concentration desired.
About 20 Lucilia cuprina larvae are introduced into a test tube which contains approx. 1 cm^3 of horse meat and 0.5 ml of the preparation of active compound to be tested. After 24 hours, the efficacy of the preparation of active compound is determined. 100% means that all blowfly larvae have been killed; 0% means that none of the blowfly larvae have been killed.

chromatographic logP [1]: 2.43
Structure (SMILES): COC(=O)CSCCC(F)=C(F)F [Example I-20]

Structure (SMILES): O=C(CSCCC(F)=C(F)F)Nc1ccc(F)cc1 [Example I-10]
mortality at 0.1 % [2]: 85%

Structure (SMILES): O=C(CSCCC(F)=C(F)F)NC(Cc1ccccc1)C(=O)O (stereo not drawn) [Example I-17]
degree of efficacy [3]: 100%

chromatographic logD [1]: 2.56
Structure (SMILES): O=C(CSCCC(F)=C(F)F)NCc1ccccc1 [Example I-23]

Structure (SMILES): O=C(O)CNC(=O)CSCCC(F)=C(F)F [Example I-15]
degree of efficacy [3]: 100%

chromatographic logP [1]: 2.94
Structure (SMILES): O=C(CSCCC(F)=C(F)F)NCc1ccc(Cl)cc1 [Example I-19]

chromatographic logP [1]: 2.77
Structure (SMILES): CC(NC(=O)CSCCC(F)=C(F)F)c1ccccc1 (stereo not drawn) [Example I-18]

Structure (SMILES): CC(NC(=O)CSCCC(F)=C(F)F)C(=O)O (stereo not drawn) [Example I-16]
degree of efficacy [3]: 100%

Structure (SMILES): O=C(CSCCC(F)=C(F)F)Nc1ccccn1 [Example I-11]
degree of efficacy [3]: 100%

chromatographic logD [1]: 1.22
Structure (SMILES): NC(=O)CSCCC(F)=C(F)F [Example I-22]

chromatographic logD [1]: 4.59
Structure (SMILES): O=C(Nc1ccc(Cl)c(Cl)c1)C(SCCC(F)=C(F)F)c1ccccc1 (stereo not drawn) [Example I-46]

Structure (SMILES): CC(C)N(C(=O)CSCCC(F)=C(F)F)c1ccc(Cl)c(Cl)c1 [Example I-13]
mortality at 0.1 % [4]: 100% | mortality at 0.1 % [5]: 100%

chromatographic logP [1]: 3.74
Structure (SMILES): CC(C)COC(=O)CSCCC(F)=C(F)F [Example I-21]

Structure (SMILES): CC(C)N(C(=O)CSCCC(F)=C(F)F)c1cccc(F)c1 [Example I-14]
mortality at 0.1 % [6]: 100% | mortality at 0.1 % [5]: 100%

Structure (SMILES): CN(C)C(=O)CSCCC(F)=C(F)F [Example I-9]
mortality at 1000 ppm [7]: 100%

Structure (SMILES): O=C(CSCCC(F)=C(F)F)OCc1ccccc1 [Example I-2]
degree of efficacy [3]: 100%
